What was measured:
Type in all cases: functional
[1] = test system: Acinetobacter baumannii; assay: Antibacterial activity against Acinetobacter baumannii AB5075 assessed as reduction in microbial growth by CLSI based microdilution method
[2] = test system: Acinetobacter baumannii; assay: Potentiation of clarithromycin-induced antibacterial activity against Acinetobacter baumannii AB5075 assessed as fold reduction in clarithromycin MIC at 30 uM by broth microdilution method (reference value: 512 ug/ml)
[3] = test system: Acinetobacter baumannii; assay: Potentiation of clarithromycin-induced antibacterial activity against Acinetobacter baumannii AB5075 assessed as clarithromycin MIC at 30 uM by CLSI based microdilution method (reference value: […] ug/ml)
[4] = test system: Acinetobacter baumannii; assay: Potentiation of clarithromycin-induced antibacterial activity against Acinetobacter baumannii AB5075 assessed as assessed as fold reduction in clarithromycin MIC at 10 uM by CLSI based microdilution method
[5] = test system: Acinetobacter baumannii; assay: Potentiation of clarithromycin-induced antibacterial activity against Acinetobacter baumannii AB5075 assessed as fold reduction in clarithromycin MIC at 30 uM after 2 to 9 days by broth microdilution method; conditions: time day 2-9
[6] = test system: Acinetobacter baumannii; assay: Potentiation of clarithromycin-induced antibacterial activity against Acinetobacter baumannii AB5075 assessed as clarithromycin MIC at 10 uM by CLSI based microdilution method (reference value: […] ug/ml)
[7] = test system: Acinetobacter baumannii; assay: Potentiation of clarithromycin-induced antibacterial activity against Acinetobacter baumannii AB5075 assessed as clarithromycin MIC at 30 uM after 2 to 9 days by broth microdilution method (reference value: […] ug/ml); conditions: time day 2-9
[8] = test system: Acinetobacter baumannii; assay: Potentiation of clarithromycin-induced antibacterial activity against Acinetobacter baumannii 4456 assessed as fold reduction in clarithromycin MIC at 10 uM incubated for 16 hrs by broth microdilution method
[9] = test system: Acinetobacter baumannii; assay: Potentiation of clarithromycin-induced antibacterial activity against Acinetobacter baumannii 4498 assessed as fold reduction in clarithromycin MIC at 10 uM incubated for 16 hrs by broth microdilution metho
[10] = test system: Acinetobacter baumannii; assay: Potentiation of clarithromycin-induced antibacterial activity against Acinetobacter baumannii 8967 assessed as fold reduction in clarithromycin MIC at 10 uM incubated for 16 hrs by broth microdilution method
[11] = test system: Acinetobacter baumannii; assay: Potentiation of clarithromycin-induced antibacterial activity against Acinetobacter baumannii AB5075 assessed as clarithromycin MIC at 7.5 uM incubated for 16 hrs by broth microdilution method (reference value: […] ug/ml)
[12] = test system: Acinetobacter baumannii; assay: Potentiation of clarithromycin-induced antibacterial activity against Acinetobacter baumannii 4795 assessed as fold reduction in clarithromycin MIC at 10 uM incubated for 16 hrs by broth microdilution method
[13] = test system: Acinetobacter baumannii; assay: Potentiation of clarithromycin-induced antibacterial activity against Acinetobacter baumannii 4025 assessed as fold reduction in clarithromycin MIC at 10 uM incubated for 16 hrs by broth microdilution method
[14] = test system: Acinetobacter baumannii; assay: Potentiation of clarithromycin-induced antibacterial activity against Acinetobacter baumannii AB5075 assessed as clarithromycin MIC at […] incubated for 16 hrs by broth microdilution method (reference value: […] ug/ml); conditions: dose 30 µM
[15] = test system: Acinetobacter baumannii; assay: Potentiation of clarithromycin-induced antibacterial activity against Acinetobacter baumannii 4269 assessed as fold reduction in clarithromycin MIC at 10 uM incubated for 16 hrs by broth microdilution method
[16] = test system: Acinetobacter baumannii; assay: Potentiation of clarithromycin-induced antibacterial activity against Acinetobacter baumannii 5256 assessed as fold reduction in clarithromycin MIC at 10 uM incubated for 16 hrs by broth microdilution method
[17] = test system: Acinetobacter baumannii; assay: Potentiation of clarithromycin-induced antibacterial activity against Acinetobacter baumannii 5197 assessed as fold reduction in clarithromycin MIC at 10 uM incubated for 16 hrs by broth microdilution method
[18] = test system: Acinetobacter baumannii; assay: Potentiation of clarithromycin-induced antibacterial activity against Acinetobacter baumannii AB5075 assessed as fold reduction in clarithromycin MIC at 20 uM incubated for 16 hrs in presence of clarithromycin by broth microdilution method
[19] = test system: Acinetobacter baumannii; assay: Potentiation of clarithromycin-induced antibacterial activity against Acinetobacter baumannii AB5075 assessed as clarithromycin MIC at 10 uM incubated for 16 hrs by broth microdilution method (reference value: […] ug/ml)
[20] = test system: Acinetobacter baumannii; assay: Potentiation of clarithromycin-induced antibacterial activity against Acinetobacter baumannii 3785 assessed as fold reduction in clarithromycin MIC at 10 uM incubated for 16 hrs by broth microdilution method
[21] = test system: Acinetobacter baumannii; assay: Potentiation of clarithromycin-induced antibacterial activity against Acinetobacter baumannii 3806 assessed as fold reduction in clarithromycin MIC at 10 uM incubated for 16 hrs by broth microdilution method
[22] = test system: Acinetobacter baumannii; assay: Potentiation of clarithromycin-induced antibacterial activity against Acinetobacter baumannii 4448 assessed as fold reduction in clarithromycin MIC at 10 uM incubated for 16 hrs by broth microdilution method
[23] = test system: Acinetobacter baumannii; assay: Potentiation of clarithromycin-induced antibacterial activity against Acinetobacter baumannii AB5075 assessed as fold reduction in clarithromycin MIC at 10 uM incubated for 16 hrs in presence of clarithromycin by broth microdilution method
[24] = test system: Acinetobacter baumannii; assay: Potentiation of clarithromycin-induced antibacterial activity against Acinetobacter baumannii 5001 assessed as fold reduction in clarithromycin MIC at 10 uM incubated for 16 hrs by broth microdilution method
[25] = test system: Acinetobacter baumannii; assay: Potentiation of clarithromycin-induced antibacterial activity against Acinetobacter baumannii 3560 assessed as fold reduction in clarithromycin MIC at 10 uM incubated for 16 hrs by broth microdilution method
[26] = test system: Acinetobacter baumannii; assay: Potentiation of clarithromycin-induced antibacterial activity against Acinetobacter baumannii 4052 assessed as fold reduction in clarithromycin MIC at 10 uM incubated for 16 hrs by broth microdilution method
[27] = test system: Acinetobacter baumannii; assay: Antibacterial activity against Acinetobacter baumannii AB5075 assessed as reduction in microbial growth incubated for 16 hrs by broth microdilution method
[28] = test system: Acinetobacter baumannii; assay: Potentiation of clarithromycin-induced antibacterial activity against Acinetobacter baumannii 4857 assessed as fold reduction in clarithromycin MIC at 10 uM incubated for 16 hrs by broth microdilution method
[29] = test system: Acinetobacter baumannii; assay: Potentiation of clarithromycin-induced antibacterial activity against Acinetobacter baumannii 4026 assessed as fold reduction in clarithromycin MIC at 10 uM incubated for 16 hrs by broth microdilution method
[30] = test system: Acinetobacter baumannii; assay: Potentiation of clarithromycin-induced antibacterial activity against Acinetobacter baumannii 5711 assessed as fold reduction in clarithromycin MIC at 10 uM incubated for 16 hrs by broth microdilution method
[31] = test system: Acinetobacter baumannii; assay: Potentiation of clarithromycin-induced antibacterial activity against Acinetobacter baumannii 4027 assessed as fold reduction in clarithromycin MIC at 10 uM incubated for 16 hrs by broth microdilution method
[32] = test system: Acinetobacter baumannii; assay: Potentiation of clarithromycin-induced antibacterial activity against Acinetobacter baumannii AB5075 assessed as clarithromycin MIC at 20 uM incubated for 16 hrs by broth microdilution method (reference value: […] ug/ml)
[33] = test system: Acinetobacter baumannii; assay: Potentiation of clarithromycin-induced antibacterial activity against Acinetobacter baumannii 4957 assessed as fold reduction in clarithromycin MIC at 10 uM incubated for 16 hrs by broth microdilution method
[34] = test system: Acinetobacter baumannii; assay: Potentiation of clarithromycin-induced antibacterial activity against Acinetobacter baumannii AB5075 assessed as fold reduction in clarithromycin MIC at 30 uM incubated for 16 hrs in presence of clarithromycin by broth microdilution method
[35] = test system: Acinetobacter baumannii; assay: Potentiation of clarithromycin-induced antibacterial activity against Acinetobacter baumannii 3927 assessed as fold reduction in clarithromycin MIC at 10 uM incubated for 16 hrs by broth microdilution method
[36] = test system: Acinetobacter baumannii; assay: Potentiation of clarithromycin-induced antibacterial activity against Acinetobacter baumannii 4878 assessed as fold reduction in clarithromycin MIC at 10 uM incubated for 16 hrs by broth microdilution method
[37] = test system: Acinetobacter baumannii; assay: Potentiation of clarithromycin-induced antibacterial activity against Acinetobacter baumannii AB5075 assessed as clarithromycin MIC at 5 uM incubated for 16 hrs by broth microdilution method (reference value: […] ug/ml)
[38] = test system: Acinetobacter baumannii; assay: Potentiation of clarithromycin-induced antibacterial activity against Acinetobacter baumannii AB5075 assessed as fold reduction in clarithromycin MIC at 5 uM incubated for 16 hrs in presence of clarithromycin by broth microdilution method
[39] = test system: Acinetobacter baumannii; assay: Potentiation of clarithromycin-induced antibacterial activity against Acinetobacter baumannii AB5075 assessed as fold reduction in clarithromycin MIC at 7.5 uM incubated for 16 hrs in presence of clarithromycin broth microdilution method
[40] = test system: Acinetobacter baumannii; assay: Potentiation of clarithromycin-induced antibacterial activity against Acinetobacter baumannii 4490 assessed as fold reduction in clarithromycin MIC at 10 uM incubated for 16 hrs by broth microdilution method
[41] = test system: Acinetobacter baumannii; assay: Potentiation of clarithromycin-induced antibacterial activity against Acinetobacter baumannii 4991 assessed as fold reduction in clarithromycin MIC at 10 uM incubated for 16 hrs by broth microdilution method

Cl.Nc1nc(-c2ccc(NC(=O)c3cc(Cl)cc(Cl)c3)cc2)c[nH]1
128: fold change (FC) [5]
16: fold change (FC) [4]
100 µM: MIC [1]
2 µg/mL: MIC [2] | MIC [6]
0.25 µg/mL: MIC [3] | MIC [7]

Cl.Nc1nc(-c2ccc(NC(=O)c3ccc(Cl)c(Cl)c3)cc2F)c[nH]1
1 µg/mL: MIC [11]
> 200 µM: MIC [27]
0.5 µg/mL: MIC [14] | MIC [19] | MIC [32]
64: fold change (FC) [18] | fold change (FC) [23] | fold change (FC) [34]
8 µg/mL: MIC [37]
4: fold change (FC) [38]
32: fold change (FC) [39]
8: fold change (FC) [8] | fold change (FC) [9] | fold change (FC) [10] | fold change (FC) [12] | fold change (FC) [13] | fold change (FC) [15] | fold change (FC) [16] | fold change (FC) [17] | fold change (FC) [20] | fold change (FC) [21] | fold change (FC) [22] | fold change (FC) [24] | fold change (FC) [25] | fold change (FC) [26] | fold change (FC) [28] | fold change (FC) [29] | fold change (FC) [30] | fold change (FC) [31] | fold change (FC) [33] | fold change (FC) [35] | fold change (FC) [36] | fold change (FC) [40] | fold change (FC) [41]

Source: ChEMBL document CHEMBL4725412, “Augmenting the Activity of Macrolide Adjuvants against Acinetobacter baumannii” (2020)
